pIC50: −log10 of the molar value. Where a name gives a salt, the structure may show the parent alone. Read-outs that look alike come from different tables or passages of the source. Blank lines part the entries; values can stand above or below the molecule they belong to.
Test system: amyloid β production in transfected H4 (human neuroglioma) cells stably expressing APP constructs
Assay: In vitro cell-based assay of inhibitors of amyloid β production (ELISA)
Details: amyloid β in medium by ELISA
Summary of the method: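 Cells expressing wild-type or variant APP were plated ≥6 h before medium was replaced with compound-containing medium (initial screen 10-100 μM) and incubated ~16 h. Secreted Aβ in medium was quantified by sandwich ELISA (C-terminal-specific mouse monoclonal capture, N-terminal rabbit polyclonal detection) against an Aβ standard curve.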

[1] = transfected H4 cells stably expressing APP constructs, approximately 16 hours incubation, read-out: ACTIVITY (IC50, inhibition of amyloid β production)
[2] = Homo sapiens, 16 h, transfected H4 cells stably expressing APP, approximately 16 hours incubation, read-out: ACTIVITY (IC50, inhibition of amyloid β production)
[3] = transfected H4 cells stably expressing APP, approximately 16 hours incubation, read-out: ACTIVITY (IC50, inhibition of amyloid β production)
[4] = Homo sapiens, 16 h, transfected H4 cells expressing APP, approximately 16 hours incubation, read-out: ACTIVITY (IC50, inhibition of amyloid β production)
[5] = transfected H4 cells stably expressing APP, approx. 16 h incubation, read-out: ACTIVITY (IC50, inhibition of amyloid β production)
[6] = Homo sapiens, 16 h, transfected H4 cells stably expressing APP constructs, approximately 16 hours incubation, read-out: ACTIVITY (IC50, inhibition of amyloid β production)
[7] = Table B, transfected H4 cells stably expressing APP, approximately 16 hours incubation, read-out: ACTIVITY (inhibitory concentration IC50, inhibition of amyloid β production)
[8] = Homo sapiens, 16 h, transfected H4 cells stably expressing APP, approximately 16 hours incubation, Table B, read-out: ACTIVITY (IC50, inhibition of amyloid β production)

Molecule: C[C@H](CCCCN1CCC(CS(C)(=O)=O)CC1)N(c1cc(Cl)ccc1Cl)S(=O)(=O)c1ccc(Cl)cc1 [Example 1150, 4-chloro-N-(2,5-dichlorophenyl)-N-[5-[[4-(methylsulfonyl)methyl]-1-piperidinyl]-1(R)-methylpentyl]benzenesulfonamide]
pIC50 [1]: 6.30 to 7.00

pIC50 [2]: < 6.30
Molecule: O=S(=O)(c1ccc(Cl)cc1)N(Cc1ccccc1OCCCN1CCCCC1)Cc1c(F)c(F)c(F)c(F)c1F [Example 974, 4-chloro-N-(2,3,4,5,6-pentafluorobenzyl)-N-{2-[3-(1-piperidinyl)propoxy]benzyl}benzenesulfonamide hydrochloride]

pIC50 [2]: < 6.30
Molecule: O=C(CCc1ccccc1CN(c1ccccc1)S(=O)(=O)c1ccccc1)N1CCCCC1 [Example 1041, N-{2-[3-oxo-3-(1-piperidinyl)propyl]benzyl}-N-phenylbenzenesulfonamide]

pIC50 [3]: < 6.30
Molecule: C[C@@H](c1ccc(F)cc1CCCC(=O)O)N(c1cc(F)ccc1F)S(=O)(=O)c1ccc(Cl)cc1 [Example 1076, 4-[2-((1S)-1-{[(4-chlorophenyl)sulfonyl]-2,5-difluoroanilino}ethyl)-5-fluorophenyl]butanoic acid]

Molecule: CSC1CCCN(CC[C@@H](C)N(c2cc(Cl)ccc2Cl)S(=O)(=O)c2ccc(Cl)cc2)C1 (stereo partly drawn) [Example 1142, 4-chloro-N-(2,5-dichlorophenyl)-N-[3-[(3-methylthio)-1-piperidinyl]-1(R)-methylpropyl]benzenesulfonamide]
pIC50 [1]: 6.30 to 7.00

Molecule: CSC1CCN(CC[C@@H](C)N(c2cc(Cl)ccc2Cl)S(=O)(=O)c2ccc(Cl)cc2)C1 (stereo partly drawn) [Example 1147, 4-chloro-N-(2,5-dichlorophenyl)-N-[3-[(3-methylthio)-1-pyrrolidinyl]-1(R)-methylpropyl]benzenesulfonamide]
pIC50 [1]: 6.30 to 7.00

pIC50 [2]: < 6.30
Molecule: O=S(=O)(c1ccc(Cl)cc1)N(Cc1cc(Cl)ccc1O)c1ccccc1 [Example 975, 4-chloro-N-(5-chloro-2-hydroxybenzyl)-N-phenylbenzenesulfonamide]

pIC50 [4]: 6.30 to 7.00
Molecule: CC1CCCC(NC(=O)[C@@H](C)N(c2cc(Cl)ccc2F)S(=O)(=O)c2ccc(Cl)cc2)C1 (stereo partly shown) [Example 1347]

Molecule: C[C@H](CCC[S+]([O-])C(C)(C)C)N(c1cc(Cl)ccc1CO)S(=O)(=O)c1ccc(Cl)cc1 (stereo partly shown) [Example 1221]
pIC50 [1]: ≥ 7.60

pIC50 [3]: < 6.30
Molecule: N-{3-[2-({[(4-chlorophenyl)sulfonyl]-2,5-difluoroanilino}ethyl)phenoxy]propyl}-3,4,5-trimethoxy-N-methylbenzamide [Example 913]

pIC50 [5]: 6.30 to 7.00
Molecule: 2-((1R)-1-{[(4-chlorophenyl)sulfonyl]-2,5-difluoroanilino}ethyl)benzyl sec-butylcarbamate [Example 758]

Molecule: O=S(=O)(c1ccc(Cl)cc1)N(Cc1ccccc1OCCC[N+]1([O-])CCCC1)c1cc(F)ccc1F [Example 507]
pIC50 (transfected H4 cells stably expressing APP, approximately 16 hours incubation, Table B, read-out: ACTIVITY (IC50, inhibition of amyloid β production)): 6.30 to 7.00

pIC50 [4]: 6.30 to 7.00
Molecule: C[C@H](C(=O)NCCc1c(Cl)cccc1Cl)N(c1cc(Cl)ccc1F)S(=O)(=O)c1ccc(Cl)cc1 [Example 1314]

pIC50 [5]: 6.30 to 7.00
Molecule: N-{3-[2-(1-{[(4-chlorophenyl)sulfonyl]-2,5-difluoroanilino}methyl)phenoxy]propyl}-N-methyl-2-phenylcyclopropanecarboxamide [Example 759]

pIC50 [5]: 6.30 to 7.00
Molecule: (2Z)-N-{3-[2-(1-{[(4-chlorophenyl)sulfonyl]-2,5-difluoroanilino}ethyl)phenoxy]propyl}-3-phenyl-2-propenamide [Example 732]

pIC50 [6]: ≥ 7.60
Molecule: CCCC(c1cc(F)ccc1[C@@H](C)N(c1cc(F)ccc1F)S(=O)(=O)c1ccc(Cl)cc1)N1CCS(=O)(=O)C(C)C1 (stereo partly drawn) [Example 1278, (R)-4-Chloro-N-(2,5-difluorophenyl)-N-[1-[4-fluoro-2-[1-(1,1-dioxo-2-methyl-4-thiomorpholinyl)butyl]phenyl]ethyl]benzenesulfonamide]

Molecule: COC(=O)[C@H](NC(=O)CCC[C@@H](C)N(c1cc(Cl)ccc1F)S(=O)(=O)c1ccc(Cl)cc1)C(C)C [Example 1266, (R)-4-Chloro-N-(5-chloro-2-fluorophenyl)-N-[5-[N-(R)-[1-(methoxycarbonyl)-2-methylpropyl]amino]-1-methyl-5-oxopentyl]benzenesulfonamide]
pIC50 [1]: ≥ 7.60

Molecule: C[C@H](CCCS(=O)(=O)C(C)(C)C)N(c1cc(Cl)ccc1CO)S(=O)(=O)c1ccc(Cl)cc1 [Example 1218]
pIC50 [1]: ≥ 7.60

pIC50 [2]: < 6.30
Molecule: CCC(c1ccccc1OCCCN1CCCCC1)N(c1cc(F)ccc1F)S(=O)(=O)c1ccc(Cl)cc1 (stereo not shown) [Example 878, 4-chloro-N-(2,5-difluorophenyl)-N-(1-{2-[3-(1-piperidinyl)propoxy]phenyl}propyl)benzenesulfonamide hydrochloride]

pIC50 [5]: 6.30 to 7.00
Molecule: benzyl 3-[2-(1-{[(4-chlorophenyl)sulfonyl]-2,5-difluoroanilino}ethyl)phenoxy]propyl(methyl)carbamate [Example 678]

pIC50 [7]: ≥ 7.60
Molecule: C[C@H](CCCS(=O)(=O)Cl)N(c1cc(Cl)ccc1CO)S(=O)(=O)c1ccc(Cl)cc1 [Example 12]

pIC50 [3]: < 6.30
Molecule: N-{4-[2-(1-{[(4-chlorophenyl)sulfonyl]-2,5-difluoroanilino}ethyl)phenoxy]butyl}-N-ethylcyclopropanecarboxamide [Example 959]

pIC50 [7]: ≥ 7.60
Molecule: C[C@H](CCOC(c1ccccc1)(c1ccccc1)c1ccccc1)N(c1cc(Cl)ccc1Cl)S(=O)(=O)c1ccc(Cl)cc1 [Example 26, 4-Chloro-N-(2,5-dichlorophenyl]-N-[1(R)-methyl-(3-triphenylmethyloxy)-propyl]benezenesulfonamide]

Molecule: CC(C)[C@H](NC(=O)CCC[C@@H](C)N(c1cc(Cl)ccc1F)S(=O)(=O)c1ccc(Cl)cc1)C(=O)O [Example 1268, (R)-4-Chloro-N-(5-chloro-2-fluorophenyl)-N-[5-[N-(S)-[1-(carboxy)-2-methylpropyl]amino]-1-methyl-5-oxopentyl]benzenesulfonamide]
pIC50 [1]: 6.30 to 7.00

Molecule: COC(=O)[C@@H](NC(=O)CCCC[C@@H](C)N(c1cc(Cl)ccc1F)S(=O)(=O)c1ccc(Cl)cc1)C(C)C [Example 542, (R)-4-Chloro-N-(5-chloro-2-fluorophenyl)-N-[6-[N-(S)-[1-(methoxycarbonyl)-2-methylpropyl]amino]-1-methyl-6-oxohexyl]benzenesulfonamide]
pIC50 [5]: 6.30 to 7.00

pIC50 [8]: 7.00 to 7.30
Molecule: CC(c1ccccc1OCCCN(C)C(=O)C12CCC(C)(C(=O)O1)C2(C)C)N(c1cc(F)ccc1F)S(=O)(=O)c1ccc(Cl)cc1 (stereo not shown) [Example 387, N-{3-[2-(1-{[(4-chlorophenyl)sulfonyl]-2,5-difluoroanilino}ethyl)phenoxy]propyl}-N,4,7,7-tetramethyl-3-oxo-2-oxabicyclo[2.2.1]heptane-1-carboxamide]

pIC50 [6]: ≥ 7.60
Molecule: C[C@H](CCCS(=O)(=O)N1CCCC1)N(c1cc(Cl)ccc1F)S(=O)(=O)c1ccc(Cl)cc1 [Example 1205, 4-chloro-N-(5-chloro-2-fluorophenyl)-N-[4-[(1-pyrrolidinyl)sulfonyl]-1(R)-methylbutyl]benzenesulfonamide]

pIC50 (Homo sapiens, 16 h, transfected H4 cells stably expressing APP, approx. 16 h incubation, read-out: ACTIVITY (IC50, inhibition of amyloid β production)): 6.30 to 7.00
Molecule: CCCC(C)N(Cc1ccccc1OCCCN1CCCCC1)S(=O)(=O)c1ccc(Cl)cc1 (stereo not shown) [Example 781, 4-chloro-N-(1-methylbutyl)-N-{2-[3-(1-piperidinyl)propoxy]benzyl}benzenesulfonamide hydrochloride]

pIC50 [3]: < 6.30
Molecule: N-{3-[2-({[(4-chlorophenyl)sulfonyl]-2,5-difluoroanilino}methyl)phenoxy]propyl}-3,4-dimethoxy-N-methylbenzamide [Example 960]

pIC50 [3]: 6.30 to 7.00
Molecule: N-{2-[2-(1-{[(4-chlorophenyl)sulfonyl]-2,5-difluoroanilino}ethyl)phenoxy]ethyl}-2-cyclohexyl-N-methylacetamide [Example 844]

pIC50 [6]: 7.30 to 7.60
Molecule: COC(=O)C1SCCN1CCCC[C@@H](C)N(c1cc(Cl)ccc1Cl)S(=O)(=O)c1ccc(Cl)cc1 (stereo partly drawn) [Example 1117, 4-chloro-N-(2,5-dichlorophenyl)-N-[5-(2-methoxycarbonyl-3-thiazolidinyl)-1(R)-methylpentyl]benzenesulfonamide]

pIC50 [5]: 6.30 to 7.00
Molecule: N-{4-[2-(1-{[(4-chlorophenyl)sulfonyl]-2,5-difluoroanilino}ethyl)phenoxy]butyl}-N-ethyl-2-thiophenecarboxamide [Example 756]

pIC50 [8]: 7.00 to 7.30
Molecule: CC(c1ccccc1OCCN(C)C(=O)N(C)C)N(c1cc(F)ccc1F)S(=O)(=O)c1ccc(Cl)cc1 (stereo not shown) [Example 397, 4-chloro-N-(2,5-difluorophenyl)-N-[1-(2-{2-[[(dimethylamino)carbonyl](methyl)amino]ethoxy}phenyl)ethyl]benzenesulfonamide]

pIC50 [2]: < 6.30
Molecule: O=S(=O)(c1ccc(Cl)cc1)N(Cc1ccccc1O)c1cc(F)ccc1F [Example 1054, 4-chloro-N-(2,5-difluorophenyl)-N-(2-hydroxybenzyl)benzenesulfonamide]
